Experimental data from patent publication US7371748B2, “Benzothiazole derivatives” (Hoffman-La Roche Inc., priority 2003, dated 2008).

Assays:
[1] = biological target: T1, human adenosine A2A receptor (Homo sapiens, UniProt P29274); assay: [3H]-SCH-58261 binding assay, human adenosine A2A receptor; conditions: human A2A receptor recombinantly expressed in CHO cell membranes; [3H]-SCH-58261 1 nM; Ki from IC50 by Cheng-Prussoff equation; read-out: Ha2 (pKi) (converted)
T1 construct: expressed in transfected cells; host or cells: CHO cells, Semliki Forest virus expression system; membrane preparation
Experimental: Human Adenosine A2A Receptor
The human adenosine A2A receptor was recombinantly expressed in chinese hamster ovary (CHO) cells using the semliki forest virus expression system. Cells were harvested, washed twice by centrifugation, homogenized and again washed by centrifugation. The final washed membrane pellet was suspended in a Tris (50 mM) buffer containing 120 mM NaCl, 5 mM KCl, 2 mM CaCl2 and 10 mM MgCl2 (pH 7.4) (buffer A). The [^3H]-SCH-58261 (Dionisotti et al., […], Br J Pharmacol 121, 353; 1 nM) binding assay was carried out in 96-well plates in the presence of 2.5 μg of membrane protein, 0.5 mg of Ysi-poly-1-lysine SPA beads and 0.1 U adenosine deaminase in a final volume of 200 μl of buffer A. Non-specific binding was defined using xanthine amine congener (XAC; 2 μM). Compounds were tested at 10 concentrations from 10 μM-0.3 nM. All assays were conducted in duplicate and repeated at least two times. Assay plates were incubated for 1 hour at room temperature before centrifugation and then bound ligand determined using a Packard Topcount scintillation counter. IC50 values were calculated using a non-linear curve fitting program and Ki values calculated using the Cheng-Prussoff equation.

T1 sequence (P29274 whole entry): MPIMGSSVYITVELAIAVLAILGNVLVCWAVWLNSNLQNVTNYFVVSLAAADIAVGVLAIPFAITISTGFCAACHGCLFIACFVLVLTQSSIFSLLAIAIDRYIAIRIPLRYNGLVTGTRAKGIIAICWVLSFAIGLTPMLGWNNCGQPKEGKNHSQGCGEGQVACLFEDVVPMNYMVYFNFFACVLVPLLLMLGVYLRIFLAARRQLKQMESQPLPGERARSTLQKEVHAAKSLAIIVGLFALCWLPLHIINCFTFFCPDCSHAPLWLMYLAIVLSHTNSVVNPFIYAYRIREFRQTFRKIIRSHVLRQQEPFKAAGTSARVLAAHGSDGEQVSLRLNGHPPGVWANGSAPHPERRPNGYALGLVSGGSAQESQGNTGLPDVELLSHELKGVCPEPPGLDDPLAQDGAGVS

Row | Ki [1] | melting point | SMILES
1 | 2.51 nM | 120 to 145 °C | COc1ccc(C2CCOCC2)c2sc(NC(=O)C[C@H]3CC[C@H](O)CC3)nc12 [Example 50, (trans)-2-(4-Hydroxy-cyclohexyl)-N-[4-methoxy-7-(tetrahydro-pyran-4-yl)-benzothiazol-2-yl]-acetamide]
2 | 1 nM | 202 to 203.5 °C | COc1ccc(C2CCOCC2)c2sc(NC(=O)N3CCC(CO)CC3)nc12 [Example 52, 4-Hydroxymethyl-piperidine-1-carboxylic acid [4-methoxy-7-(tetrahydro-pyran-4-yl)-benzothiazol-2-yl]-amide]
